Measured values as given in patent US11161839B2, “2-quinolone derived inhibitors of BCL6” (Cancer Research Technology Limited, priority 2017, dated 2021).
Like-named read-outs stand apart in the source and are kept apart here.

Key:
[1] = biological target: BCL6-NCOR2(SMRT) corepressor protein-protein interaction (Homo sapiens (Human), UniProt P41182); experiment: NanoBRET cell assay in transfected HEK293T cells; assay type: cell-based; conditions: HEK293T cells, 6 hr; for IC50: read-out: NanoBRET cell pIC50 (converted)
[2] = biological target: human BCL6 BTB domain (Trx-6xHis-BCL6) (Homo sapiens (Human), UniProt P41182); experiment: HTRF in vitro assay (BCL6 BTB domain / BCOR-AF633 peptide); assay type: binding; conditions: for IC50: read-out: HTRF pIC50 (converted)
[3] = further generated data (Table 2b)
[4] = further generated data (Table 1b), 1 nM Trx-6xHis-BCL6, 0.5 nM anti-6xHis-Terbium cryptate
[5] = initially generated data (Table 1a), 10 nM Trx-6xHis-BCL6, 1 nM anti-6xHis-Terbium cryptate

| IC50 [1, 3] [nM] | HTRF pIC50 [2, 4] | IC50 [2, 4] [nM] | HTRF pIC50 [2, 5] | NanoBRET cell pIC50 [1, 3] | IC50 ([1]; initially generated data (Table 2a)) [nM] | Compound |
| --- | --- | --- | --- | --- | --- | --- |
| 501 | 7.02 |  |  |  |  | C[C@@H](Nc1cc(=O)n(C)c2ccc(Nc3cc(C(=O)N4CCC4)nc(Cl)c3C#N)cc12)C1CC1 [Example 8c, (R)-6-(azetidine-1-carbonyl)-2-chloro-4-((4-((1-cyclopropylethyl)amino)-1-methyl-2-oxo-1,2-dihydroquinolin-6-yl)amino)nicotinonitrile] |
| 2340 |  | 191 |  |  |  | CC(Nc1nc(=O)n(C)c2ccc(Nc3nc(N4CCC(F)(F)CC4)ncc3Cl)cc12)c1ncccn1 (stereo not shown) [Example 12a, 6-((5-Chloro-2-(4,4-difluoropiperidin-1-yl)pyrimidin-4-yl)amino)-1-methyl-4-((1-(pyrimidin-2-yl)ethyl)amino)quinazolin-2(1H)-one] |
| 1700 | 6.66 |  |  |  |  | Cn1c(=O)cc(NC(C)(C)c2ncccn2)c2cc(Nc3cc(Cl)nc(Cl)c3Cl)ccc21 [Example 13, 1-methyl-4-((2-(pyrimidin-2-yl)propan-2-yl)amino)-6-((2,3,6-trichloropyridin-4-yl)amino)quinolin-2(1H)-one] |
| 2450 | 6.57 |  |  |  |  | C[C@@H]1CN(c2ncc(Cl)c(Nc3ccc4c(c3)c(NC(C)(C)c3ncccn3)cc(=O)n4C)n2)C[C@H](C)O1 [Example 12f, 6-((5-chloro-2-((2S,6R)-2,6-dimethylmorpholino)pyrimidin-4-yl)amino)-1-methyl-4-((2-(pyrimidin-2-yl)propan-2-yl)amino)quinolin-2(1H)-one] |
| 5500 | 6.57 |  |  |  |  | CC(Nc1nc(=O)n(C)c2ccc(Nc3ccnc(Cl)c3Cl)cc12)c1ncccn1 (stereo not shown) [Example 6c, 6-((2,3-dichloropyridin-4-yl)amino)-1-methyl-4-((1-(pyrimidin-2-yl)ethyl)amino)quinazolin-2(1H)-one] |
| 8710 | 6.19 |  |  |  |  | Cn1c(=O)cc(NC2(c3ncccn3)CC2)c2cc(Nc3ccnc(Cl)c3C#N)ccc21 [Example 10u, 2-chloro-4-((1-methyl-2-oxo-4-((1-(pyrimidin-2-yl)cyclopropyl)amino)-1,2-dihydroquinolin-6-yl)amino)nicotinonitrile] |
| 1230 | 6.92 |  |  |  |  | CC(Nc1cc(=O)n(C)c2ccc(Nc3ccnc(Cl)c3C#N)cc12)c1ncc(Br)cn1 (stereo not shown) [Example 10j, 4-((4-((1-(5-bromopyrimidin-2-yl)ethyl)amino)-1-methyl-2-oxo-1,2-dihydroquinolin-6-yl)amino)-2-chloronicotinonitrile] |
| 1780 | 6.96 |  |  |  |  | CNC(=O)c1cc(Nc2ccc3c(c2)c(N[C@H](C)C2CC2)cc(=O)n3C)c(C#N)c(Cl)n1 [Example 10i, (R)-6-chloro-5-cyano-4-((4-((1-cyclopropylethyl)amino)-1-methyl-2-oxo-1,2-dihydroquinolin-6-yl)amino)-N-methylpicolinamide] |
| 3800 |  | 501 |  |  |  | CC(Nc1cc(=O)n(C)c2ccc(Nc3nc(N4CCC(F)(F)C(CO)C4)ncc3Cl)cc12)c1ncccn1 (single isomer, unassigned) [Example 26d] |
| 1620 | 7.26 |  |  |  |  | CC(Nc1cc(=O)n(C)c2ccc(Nc3ccnc(Cl)c3C#N)cc12)c1ncc(C2CCC2)cn1 (stereo not shown) [Example 24f, 2-chloro-4-((4-((1-(5-cyclobutylpyrimidin-2-yl)ethyl)amino)-1-methyl-2-oxo-1,2-dihydroquinolin-6-yl)amino)nicotinonitrile] |
| 2690 | 6.44 |  |  |  |  | CCOC(=O)c1cc(Nc2ccc3c(c2)c(NC(C)c2ncccn2)cc(=O)n3C)n2nccc2n1 (stereo not shown) [Example 10q, ethyl 7-((1-methyl-2-oxo-4-((1-(pyrimidin-2-yl)ethyl)amino)-1,2-dihydroquinolin-6-yl)amino)pyrazolo[1,5-a]pyrimidine-5-carboxylate] |
| 5370 | 5.88 |  | 6.15 |  |  | Cc1cc(C(C)Nc2cc(=O)n(C)c3ccc(Nc4ccnc(Cl)c4C#N)cc23)no1 (stereo not shown) [Example 1m, 2-chloro-4-[[1-methyl-4-[1-(5-methylisoxazol-3-yl)ethylamino]-2-oxo-6-quinolyl]amino]pyridine-3-carbonitrile] |
| 2190 | 6.46 |  |  |  |  | COCCC1CCCN1C(=O)c1cc(Nc2ccc3c(c2)c(N[C@H](C)C2CC2)cc(=O)n3C)c(Cl)cn1 (stereo partly shown) [Example 15b] |
| 1780 | 6.48 |  |  |  |  | CC(Nc1cc(=O)n(C)c2ccc(Nc3nc(N4C[C@@H](C)O[C@@H](C)C4)ncc3Cl)cc12)c1ncccn1 (stereo partly drawn) [Example 17a, 6-((5-chloro-2-((2S,6R)-2,6-dimethylmorpholino)pyrimidin-4-yl)amino)-1-methyl-4-((1-(pyrimidin-2-yl)ethyl)amino)quinolin-2(1H)-one] |
| 8910 | 7.10 |  |  |  |  | CC(Nc1nc(=O)n(C)c2ccc(Nc3ccnc(Cl)c3C#N)cc12)c1ncccn1 (stereo not shown) [Example 10h] |
|  | 6.58 |  | 6.58 | 5.45 | 3550 | CC(Nc1cc(=O)n(CC2CCOCC2)c2ccc(Nc3ccnc(Cl)c3C#N)cc12)c1ncccn1 (stereo not shown) [Example 1d, 2-chloro-4-[[2-oxo-4-(1-pyrimidin-2-ylethylamino)-1-(tetrahydropyran-4-ylmethyl)-6-quinolyl]amino]pyridine-3-carbonitrile] |
| 1580 | 6.90 |  | 6.29 |  |  | Cc1cc(Nc2ccc3c(c2)c(NC(C)c2ncccn2)cc(=O)n3C)c(C#N)c(Cl)n1 (stereo not shown) [Example 1w, 2-chloro-6-methyl-4-[[1-methyl-2-oxo-4-(1-pyrimidin-2-ylethylamino)-6-quinolyl]amino]pyridine-3-carbonitrile] |
| 977 | 6.85 |  |  |  |  | CNC(=O)c1cc(Nc2ccc3c(c2)c(NC(C)(C)COC)cc(=O)n3C)c(C#N)c(Cl)n1 [Example 7d, 6-chloro-5-cyano-4-[[4-[(2-methoxy-1,1-dimethyl-ethyl)amino]-1-methyl-2-oxo-6-quinolyl]amino]-N-methyl-pyridine-2-carboxamide] |
| 3470 | 6.38 |  |  |  |  | CC(Nc1cc(=O)n(C)c2ccc(Nc3ccnc(Cl)c3C#N)cc12)c1cc2ccccc2cn1 (stereo not shown) [Example 24e, 2-chloro-4-((4-((1-(isoquinolin-3-yl)ethyl)amino)-1-methyl-2-oxo-1,2-dihydroquinolin-6-yl)amino)nicotinonitrile] |
| 29500 |  | 891 |  |  |  | CNC(=O)c1cc(Nc2ccc3c(c2)c(NC(C)c2ncccn2)cc(=O)n3C)c(C#N)cn1 (stereo not shown) [Example 19c] |
| 2950 | 6.40 |  |  |  |  | CCC(C)(COC)Nc1cc(=O)n(C)c2ccc(Nc3cc(C(=O)NC)nc(Cl)c3C#N)cc12 (stereo not shown) [Example 19f, 6-chloro-5-cyano-4-((4-((1-methoxy-2-methylbutan-2-yl)amino)-1-methyl-2-oxo-1,2-dihydroquinolin-6-yl)amino)-N-methylpicolinamide] |
| 1580 | 7.20 |  | 6.68 |  |  | Cn1c(=O)cc(NC(C)(C)c2ncccn2)c2cc(Nc3ccnc(Cl)c3C#N)cnc21 [Example 1x, 2-chloro-4-[[8-methyl-5-[(1-methyl-1-pyrimidin-2-yl-ethyl)amino]-7-oxo-1,8-naphthyridin-3-yl]amino]pyridine-3-carbonitrile] |
| 2040 | 6.44 |  |  |  |  | Cn1c(=O)cc(NC(C)(C)c2ncccn2)c2cc(Nc3nc(-n4ccc(C(F)(F)F)n4)ncc3Cl)ccc21 [Example 14d, 6-((5-chloro-2-(3-(trifluoromethyl)-1H-pyrazol-1-yl)pyrimidin-4-yl)amino)-1-methyl-4((2-(pyrimidin-2-yl)propan-2-yl)amino)quinolin-2(1H)-one] |
| 2690 | 6.31 |  |  |  |  | COCC1CCN1c1ncc(Cl)c(Nc2ccc3c(c2)c(N[C@H](C)C2CC2)cc(=O)n3C)n1 (stereo partly drawn) [Example 26b, 6-((5-chloro-2-(2-(methoxymethyl)azetidin-1-yl)pyrimidin-4-yl)amino)-4-(((R)-1-cyclopropylethyl)amino)-1-methylquinolin-2(1H)-one: formic acid (1:1)] |
| 3720 |  | 339 |  |  |  | CC(Nc1cc(=O)n(C)c2ccc(Nc3nc(N4CCC(C(=O)N(C)C)CC4)ncc3Cl)cc12)c1ncccn1 (stereo not shown) [Example 17c, 1-(5-chloro-4-((-methyl-2-oxo-4-((1-(pyrimidin-2yl)ethyl)amino)-1,2-dihydroquinolin-6-yl)amino)pyrimidin-2-yl)-N,N-dimethylpiperidine-4-carboxamide] |
| 6760 | 6.33 |  |  |  |  | CC(=O)N(C)c1cc(Nc2ccc3c(c2)c(NC(C)c2ncccn2)cc(=O)n3C)c(Cl)cn1 (stereo not shown) [Example 21, N-(5-Chloro-4-((1-methyl-2-oxo-4-((1-(pyrimidin-2-yl)ethyl)amino)-1,2-dihydroquinolin-6-yl)amino)pyridin-2-yl)-N-methylacetamide] |
| 6760 |  | 380 |  |  |  | CNC(=O)c1cc(Nc2ccc3c(c2)c(NC2CCC2OC)cc(=O)n3C)c(C#N)c(Cl)n1 (racemic) [Example 23a, rac-6-chloro-5-cyano 4-((4-(((1R,2R)-2-methoxycyclobutyl)amino)-1-methyl-2-oxo-1,2-dihydroquinolin-6-yl)amino)-N-methylpicolinamide or rac-6-chloro-5-cyano-4-((4-(((1R,2S)-2-methoxycyclobutyl)amino)-1-methyl-2-oxo-1,2-dihydroquinolin-6-yl)amino)-N-methylpicolinamide] |

| Compound | IC50 [1, 3] [nM] | HTRF pIC50 [2, 4] | IC50 [2, 4] [nM] | HTRF pIC50 [2, 5] | NanoBRET cell pIC50 [1, 3] | IC50 ([1]; initially generated data (Table 2a)) [nM] |
| --- | --- | --- | --- | --- | --- | --- |
| CC(Nc1cc(=O)n(CC2CCC2)c2ccc(Nc3ccnc(Cl)c3C#N)cc12)c1ncccn1 (stereo not shown) [Example 11i, 2-chloro-4((1-(cyclobutylmethyl)-2-oxo-4-((1-(pyrimidin-2-yl)ethyl)amino)-1,2-dihydroquinolin-6-yl)amino)nicotinonitrile] | 2090 | 6.64 |  |  |  |  |
